Measured values as given in PubChem BioAssay (NCI).
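Cultured in 96-well plates, cells were exposed to test compound for 48 hours across five concentrations. GI50 is the concentration that inhibits growth by half. At the TGI there is no net growth.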

Tests used:
Assay in all cases: inhibition of tumour cell growth, NCI panel, 48 h
[1] = tested on: K-562 leukemia
[2] = tested on: CAKI-1 renal
[3] = tested on: NCI/ADR-RES ovarian
[4] = tested on: SK-OV-3 ovarian
[5] = tested on: RXF 393 renal
[6] = tested on: NCI-H23 lung
[7] = tested on: MCF7 breast
[8] = tested on: MOLT-4 leukemia
[9] = tested on: SN12C renal
[10] = tested on: NCI-H522 lung

COc1ccc(/C=C(\C#N)n2nnc3ccccc32)cc1
GI50 [1]: 0.043 µM
TGI [1]: > 100 µM
GI50 [2]: 0.0638 µM
TGI [2]: > 84.6 µM
GI50 [3]: 0.0604 µM
TGI [3]: 28.2 µM
GI50 [4]: 0.64 µM
TGI [4]: > 40.1 µM
GI50 [5]: 0.15 µM
TGI [5]: 0.607 µM
GI50 [6]: 0.572 µM
TGI [6]: 50.4 µM
GI50 [7]: 0.328 µM
TGI [7]: > 100 µM
GI50 [8]: 0.542 µM
TGI [8]: > 44.9 µM
GI50 [9]: 0.832 µM
TGI [9]: 26.6 µM
GI50 [10]: 0.0336 µM
TGI [10]: > 34.1 µM

Oc1ccccc1C=Nc1nc(SCc2ccccc2)nc2[nH]ncc12
GI50 [1]: 35.2 µM
TGI [1]: > 100 µM
GI50 [2]: 47.6 µM
TGI [2]: > 100 µM
GI50 [3]: 43.8 µM
TGI [3]: > 100 µM
GI50 [4]: > 100 µM
TGI [4]: > 100 µM
GI50 [5]: 32.5 µM
TGI [5]: > 100 µM
GI50 [6]: 61.2 µM
TGI [6]: > 100 µM
GI50 [7]: 39.1 µM
TGI [7]: > 100 µM
GI50 [8]: 24.8 µM
TGI [8]: > 100 µM
GI50 [9]: > 100 µM
TGI [9]: > 100 µM
GI50 [10]: 50.9 µM
TGI [10]: > 100 µM

O=Cc1ccccc1B(O)O
TGI [1]: > 100 µM
TGI [2]: > 100 µM
TGI [3]: > 100 µM
TGI [4]: > 100 µM
TGI [5]: > 100 µM
TGI [7]: > 100 µM
TGI [8]: 26.1 µM
TGI [9]: > 100 µM
TGI [10]: 97.9 µM

COc1ccc(NC(=O)COCCOCCNC[C@@H]2C(=O)O[C@H]3[C@H]2CC/C(COC(=O)OC/C2=C/CC[C@@]4(C)O[C@H]4[C@H]4OC(=O)[C@@H](CN(C)C)[C@@H]4CC2)=C\CC[C@@]2(C)O[C@@H]32)c(O)c1C(N)=O
GI50 [3]: > 50 µM
TGI [3]: > 50 µM
GI50 [4]: 40.6 µM
TGI [4]: > 50 µM
GI50 [5]: 1.3 µM
TGI [5]: 3.59 µM
GI50 [6]: 9.06 µM
TGI [6]: 22.1 µM
GI50 [7]: 1.63 µM
TGI [7]: 9.01 µM
GI50 [8]: 1.63 µM
TGI [8]: 6 µM
GI50 [9]: 7.74 µM
TGI [9]: 17.5 µM
GI50 [10]: 0.888 µM
TGI [10]: 1.88 µM

C=C1C(=O)O[C@H]2[C@H]1CCC(/C=N/c1ncc(Br)cc1N)=C\CC[C@@]1(C)O[C@@H]21
GI50 [1]: 2.11 µM
TGI [1]: > 100 µM
GI50 [3]: 3.11 µM
TGI [3]: 21.9 µM
GI50 [4]: 16.3 µM
TGI [4]: 95.2 µM
GI50 [5]: 1.38 µM
TGI [5]: 2.9 µM
GI50 [6]: 3.18 µM
TGI [6]: 17.2 µM
GI50 [8]: 2.36 µM
TGI [8]: 9.33 µM
GI50 [9]: 1.78 µM
TGI [9]: 5.41 µM
GI50 [10]: 0.781 µM
TGI [10]: 2.6 µM

CN1CC[C@]2(C)c3cc(O)ccc3CC3CCCC1C32C (stereo partly specified)
TGI [1]: > 100 µM
TGI [2]: > 100 µM
TGI [4]: > 100 µM
TGI [5]: > 100 µM
TGI [6]: > 100 µM
TGI [8]: > 100 µM
TGI [9]: > 100 µM
TGI [10]: > 100 µM

CN(C)CCNC(=O)c1cccc2[nH]c(-c3cccnc3)nc12
TGI [1]: > 100 µM
TGI [2]: 88.1 µM
TGI [4]: 80.3 µM
TGI [5]: 33.8 µM
TGI [6]: 44.9 µM
TGI [8]: > 100 µM
TGI [9]: 54.4 µM

COC(=O)[C@]12CC=C3O[C@@H]4OC5(CCCCC5)O[C@@H]4C3[C@@H]1C(=O)CCC2=O (stereo partly specified)
TGI [1]: > 100 µM
TGI [2]: > 100 µM
TGI [4]: > 100 µM
TGI [6]: > 100 µM
TGI [8]: > 100 µM
TGI [9]: > 100 µM
TGI [10]: > 100 µM

Oc1ccccc1CNCC12CC3CC(CC(C3)C1)C2
GI50 [1]: 5.39 µM
TGI [1]: > 100 µM
GI50 [2]: 37 µM
TGI [2]: > 100 µM
GI50 [3]: 40.4 µM
TGI [3]: > 100 µM
GI50 [4]: 35.8 µM
TGI [4]: > 100 µM
GI50 [5]: 16.7 µM
TGI [5]: 40.3 µM
GI50 [6]: 32.4 µM
TGI [6]: > 100 µM
GI50 [7]: 16.8 µM
TGI [7]: 34.7 µM
GI50 [8]: 24.5 µM
TGI [8]: 70.2 µM
GI50 [9]: 32.6 µM
TGI [9]: > 100 µM

Nc1nc(N)c2c(n1)NC(c1ccc(F)cc1)C1CCc3ccccc3C1=N2 (stereo unspecified)
GI50 [2]: 2.72 µM
TGI [2]: 16.2 µM
GI50 [3]: 3.19 µM
TGI [3]: 11.4 µM
GI50 [4]: 11.1 µM
TGI [4]: 23.3 µM
GI50 [5]: 5.48 µM
TGI [5]: 20 µM
GI50 [6]: 4.06 µM
TGI [6]: 16.6 µM
GI50 [7]: 2.67 µM
TGI [7]: 11 µM
GI50 [9]: 7.8 µM
TGI [9]: 21.6 µM
GI50 [10]: 5.66 µM
TGI [10]: 21.2 µM

Cc1[nH]c(=O)n2c(C)nnc2c1C(=O)Nc1cc(Cl)cc(Cl)c1
TGI [1]: > 100 µM
TGI [2]: > 100 µM
TGI [4]: 70.7 µM
TGI [5]: 42 µM
TGI [6]: 53 µM
TGI [8]: > 100 µM
TGI [9]: 66.5 µM
TGI [10]: 28.2 µM

CN(C)C=[N+]=[N-]
TGI [1]: > 100 µM
TGI [2]: > 100 µM
TGI [4]: > 100 µM
TGI [5]: > 100 µM
TGI [6]: > 100 µM
TGI [8]: > 100 µM
TGI [9]: > 100 µM
TGI [10]: > 100 µM

CCCC/C=C1\CCC(C)(CN(C)C)C1=O (stereo unspecified)
TGI [1]: > 100 µM
TGI [2]: > 100 µM
TGI [5]: > 100 µM
TGI [6]: > 100 µM
TGI [8]: > 100 µM
TGI [9]: > 100 µM
TGI [10]: 75.9 µM

S=c1ssc(Oc2ccccc2)c1Cl
GI50 [1]: 2.68 µM
TGI [1]: > 100 µM
GI50 [2]: 16 µM
TGI [2]: 29.5 µM
GI50 [3]: 16.4 µM
TGI [3]: 35.4 µM
GI50 [4]: 39.4 µM
TGI [4]: > 100 µM
GI50 [5]: 12 µM
TGI [5]: 29.8 µM
GI50 [6]: 12.6 µM
TGI [6]: 50.9 µM
GI50 [8]: 0.73 µM
TGI [8]: > 100 µM
GI50 [9]: 11.7 µM
TGI [9]: 28.2 µM
GI50 [10]: 23.2 µM
TGI [10]: 42.5 µM

FC(F)(F)c1ccc(C#Cc2ccccc2C#Cc2ccccc2)cc1
GI50 [1]: 34.2 µM
TGI [1]: 89.5 µM
GI50 [2]: 46.1 µM
TGI [2]: > 100 µM
GI50 [3]: 62.8 µM
TGI [3]: > 100 µM
GI50 [4]: 32.6 µM
TGI [4]: > 100 µM
GI50 [5]: 23.4 µM
TGI [5]: 65.6 µM
GI50 [6]: 49 µM
TGI [6]: > 100 µM
GI50 [7]: 22.5 µM
TGI [7]: 89.8 µM
GI50 [8]: 35 µM
TGI [8]: 87.2 µM
GI50 [10]: 21.4 µM
TGI [10]: 45.4 µM

COc1ccccc1C1c2cc3c(cc2OC(O)(CO)C1C(=O)O)OCO3 (stereo unspecified) (tested in a mixture with another compound)
TGI [1]: > 100 µM
TGI [4]: > 100 µM
TGI [5]: > 100 µM
TGI [6]: > 100 µM
TGI [8]: > 100 µM
TGI [9]: > 100 µM

C[C@]12CCC(=O)C(O)=C1CC[C@@H]1C2CC[C@]2(C)Nc3c(cnn3-c3ccccc3)CC12 (stereo partly specified)
TGI [1]: > 100 µM
TGI [2]: > 100 µM
TGI [4]: > 100 µM
TGI [5]: > 100 µM
TGI [6]: > 100 µM
TGI [8]: > 100 µM

Cc1ccc([N+](=O)[O-])cc1NC(=O)c1cccc([N+](=O)[O-])c1O
TGI [1]: 96.6 µM
TGI [2]: 89.7 µM
TGI [4]: 54.3 µM
TGI [5]: 27.7 µM
TGI [6]: 48.4 µM
TGI [8]: 73 µM
TGI [9]: > 100 µM
TGI [10]: 26.6 µM
